Here are results for 2 molecules from PMC9916778 (International Journal of Molecular Sciences, 2023).

For data set [1], the system named is A2780 ovarian carcinoma cells. Briefly: In vitro cytotoxicity (MTT assay), A2780. The class given is cell-based, human. The settings on record: MTT, 24 h incubation, ± standard deviation, triplicate; read-out: IC50, A2780. As for the experimental part: (§1) The reference normal cell line of human fetal fibroblasts (MRC-5) was obtained from the same commercial source and maintained according to the producer’s instructions. The half-maximal inhibitory concentrations (IC50) were calculated from dose–response curves by means of the GraphPad Prism 6 software (GraphPad Software, San Diego, CA, USA).
In general terms: Formazan colour is commonly taken as a measure of viable cells.

Data set [2] has as its system A2780R Cisplatin-resistant ovarian carcinoma cells. Kind of data set: In vitro cytotoxicity (MTT assay), A2780R. The class given is cell-based, human. The settings on record: ± standard deviation, triplicate. As for the experimental part:
as §1, with “The testing was performed on the ovarian carcinoma (A2780), Cisplatin-resistant ovarian carcinoma (A2780R), prostate adenocarcinoma (PC-3), prostate carcinoma (22Rv1), and leukemia monocytic (THP-1) and intestinal colon adenocarcinoma (LS180) human cell lines that were obtained from the ATCC collection of cell lines and cultivated according to the producer’s instructions. The reference” for “The reference”

The test system of data set [3] is PC-3 prostate adenocarcinoma cells. Kind of data set: In vitro cytotoxicity (MTT assay), PC-3. The settings on record: ± standard deviation, triplicate. Type of data set: cell-based, human. As for the experimental part: as §1, with “The testing was performed on the ovarian carcinoma (A2780), Cisplatin-resistant ovarian carcinoma (A2780R), prostate adenocarcinoma (PC-3), prostate carcinoma (22Rv1), and leukemia monocytic (THP-1) and intestinal colon adenocarcinoma (LS180) human cell lines that were obtained from the ATCC collection of cell lines and cultivated according to the producer’s instructions. The reference” for “The reference”

Data set [4] concerns MRC5 human fetal fibroblasts. Briefly: In vitro cytotoxicity (MTT assay), normal MRC-5 fibroblasts. The class given is cell-based. The settings on record: ± standard deviation, triplicate, read-out: IC50, MRC5 (healthy cells). As for the experimental part:
as §1, with “The testing was performed on the ovarian carcinoma (A2780), Cisplatin-resistant ovarian carcinoma (A2780R), prostate adenocarcinoma (PC-3), prostate carcinoma (22Rv1), and leukemia monocytic (THP-1) and intestinal colon adenocarcinoma (LS180) human cell lines that were obtained from the ATCC collection of cell lines and cultivated according to the producer’s instructions. The reference” for “The reference”

In data set [5] the test system is human cancer cell lines (A2780, A2780R, PC-3, 22Rv1, and THP-1). Briefly: In vitro cytotoxicity, summary statements over the panel of cell lines. To be noted: read-out: IC50 of kinetin; A2780, A2780R, PC-3; concentration range 0.01–25 μM. Type of data set: cell-based. Here is the method: as §1, with “The testing was performed on the ovarian carcinoma (A2780), Cisplatin-resistant ovarian carcinoma (A2780R), prostate adenocarcinoma (PC-3), prostate carcinoma (22Rv1), and leukemia monocytic (THP-1) and intestinal colon adenocarcinoma (LS180) human cell lines that were obtained from the ATCC collection of cell lines and cultivated according to the producer’s instructions. The reference” for “The reference”

The subject of the next data set is THP1-Blue™ NF-κB cells. Briefly: Cell viability, CCK-8, serum-free medium. Type of data set: cell-based, human. The settings on record: THP1-Blue NF-κB cells, serum-free medium, 24 h treatment, CCK-8; read-out: IC50 ± SEM, cytotoxic effect. Here is the method: The cells were cultivated in RPMI (Roswell Park Memorial Institute) 1640 medium (Biosera; Nuaille, France) supplemented with 10% fetal bovine serum (FBS) and antibiotics (100 U/mL penicillin and […] streptomycin) (both from Merck). All further experiments were performed in serum-free medium. The effect of the test compounds dissolved in DMF on cell viability after 24 h incubation was determined using a Cell Counting Kit-8 (CCK-8; Merck) according to the manufacturer’s instructions, similarly as previously described.

Another data set relates to PPARγ. Briefly: Immunocytochemical analysis of PPARγ expression and localisation. The class given is cell-based, human. The settings on record: 100 nM, 1 h pre-treatment, LPS-stimulated THP1-Blue NF-κB macrophages. Here is the method: THP1-Blue™ NF-κB cells were seeded onto a µ-Slide 8 Well (Ibidi; Gräfelfing, Germany) and differentiated into macrophages by […] (PMA) at the final concentration of 50 ng/mL, as was described previously.
Differentiated macrophages were washed by PBS and covered by fresh serum-free medium for 2 h. […] One hour later, the cells were challenged by LPS for 24 h. Then, the cells were washed by PBS and fixed by 4% paraformaldehyde dissolved in PBS for 10 min. Cell permeabilization and blocking of free binding sites were performed by 0.1% (v/v) Triton X100 and 5% (w/v) bovine serum albumin (BSA) dissolved in PBS for 1 h at room temperature. After that, cells were washed by PBS with 0.1% (v/v) Tween 20 and covered by fresh PBS with 5% BSA and 0.1% Tween 20 containing Alexa Fluor® 546-labelled anti-PPARγ antibody diluted 1:100 (catalogue number sc-7273; Santa Cruz Biotechnology; Dallas, TX, USA) for a further 24 h. Then, cells were washed by PBS with 0.1% Tween 20 and incubated with Hoechst stain diluted 1:2000 for 10 min. The remaining stain was washed out by PBS and covered by fresh PBS for further microscope analysis. The confocal microscope Leica TCS SP8 MP (Leica Microsystems, Mannheim, Germany) was used for obtaining the images for the immunocytochemical analysis of PPARγ expression and localization.

Another data set deals with MCF-7 cells. The settings on record: literature data ref 22; cited from earlier work.
Data set [6] concerns 22Rv1 prostate carcinoma cells. Kind of data set: In vitro cytotoxicity (MTT assay), 22Rv1. The class given is cell-based, human. The settings on record: ± standard deviation, triplicate. Here is the method: as §1, with “The testing was performed on the ovarian carcinoma (A2780), Cisplatin-resistant ovarian carcinoma (A2780R), prostate adenocarcinoma (PC-3), prostate carcinoma (22Rv1), and leukemia monocytic (THP-1) and intestinal colon adenocarcinoma (LS180) human cell lines that were obtained from the ATCC collection of cell lines and cultivated according to the producer’s instructions. The reference” for “The reference”

For data set [7], the system named is LS180 intestinal colon adenocarcinoma cells. Kind of data set: In vitro cytotoxicity (MTT assay), LS180. The class given is cell-based, human. To be noted: ± standard deviation, triplicate. As for the experimental part: as §1, with “The testing was performed on the ovarian carcinoma (A2780), Cisplatin-resistant ovarian carcinoma (A2780R), prostate adenocarcinoma (PC-3), prostate carcinoma (22Rv1), and leukemia monocytic (THP-1) and intestinal colon adenocarcinoma (LS180) human cell lines that were obtained from the ATCC collection of cell lines and cultivated according to the producer’s instructions. The reference” for “The reference”

Data set [8] relates to A2780 cells. Briefly: Cell cycle analysis (flow cytometry). Type of data set: cell-based, human. The settings on record: A2780, half-cytotoxic concentration, 24 h. Here is the method: After 24 h, the cells were treated with a 4 µM solution of complex (1) and cultivated for the next 24 h. Then, the cells were washed once with PBS (0.1 M, pH 7.4), and cell cycle analysis was performed using a BD Cycletest^TM Plus DNA kit (Becton Dickinson, Franklin Lakes, NJ, USA) according to the manufacturer’s protocol. The data were acquired using a BD FACSVerse flow cytometer (Becton Dickinson, USA) in three independent experiments, each performed in duplicate, while at least 5 × 10^3 events were recorded for each sample.
In general terms: In flow cytometry, cells or beads pass a laser one at a time.

The test system of data set [9] is A2780 cells. Kind of data set: Induction of apoptosis, Annexin V-FITC/PI staining. The class given is cell-based, human. The settings on record: A2780, half-cytotoxic concentration, 24 h. Here is the method: (§2) The induction of cell death by complex (1) was studied by two methods in the A2780 cell line. Firstly, the induction of apoptosis was tested using an Annexin V-FITC/PI commercial kit (V13242, Thermo Fisher Scientific, USA). Second, caspase 3/7 activation was monitored using the CellEvent™ Caspase-3/7 Green Flow Cytometry Assay Kit (C10427, Thermo Fisher Scientific, USA). Both assays were performed according to the manufacturers’ protocols with one modification in the caspase induction assay: the use of CellEvent^TM Caspase-3/7 Green Detection Reagent was only for the detection of caspase 3/7 activation. The general procedure was as follows: 5 × 10^4 cells per well were seeded in a 24-well cell culture plate, and after 24 h, the cells were treated with 4 µM solution of complex (1) and cultivated for next 24 h. […] The trypsin was blocked by adding the cell culture medium to a final volume of 500 µL, and the resulting cell suspensions were divided into two separate 250 µL aliquots. The first set of aliquots was used to evaluate the Annexin V-FITC/PI assay, whilst the second one was used for the caspase 3/7 activation assay. Both assays were performed using a BD FACSVerse flow cytometer (Becton Dickinson, USA) in three independent experiments, each performed in duplicate.

The test system of the next data set is caspases 3/7. Briefly: Caspase 3/7 activation (flow cytometry). The class given is cell-based, human. The settings on record: A2780, half-cytotoxic concentration, 24 h. Here is the method:
as §2

Data set [10] has as its system A2780 cells. Briefly: Induction of autophagy (CYTO-ID kit). Type of data set: cell-based, human. The settings on record: A2780, half-cytotoxic concentration, 24 h. Here is the method:
The induction of autophagy by complex (1) was studied using a CYTO-ID® Autophagy Detection Kit 2.0 (ENZO, New York, NY, USA) according to the manufacturer’s protocol. Briefly, the A2780 cells were seeded in a 24-well cell culture plate at 5 × 10^4 cells per well and cultivated for 24 h. The next day, the cells were treated with complex (1) at 4 µM. […] Then, the cells were stained with CYTO-ID® Green stain solution and incubated for 30 min in the dark. After the final wash with PBS, the cell suspensions were analyzed using the BD FACSVerse flow cytometer (Becton Dickinson, USA) in three separate experiments, while at least 10^4 events were recorded for each sample prepared in duplicates. The cells incubated with the mixture of chloroquine (10 µM) and rapamycin (0.5 µM) for 18 h were used as a positive control.

Data set [11] relates to A2780 cells. Briefly: Intracellular ROS/superoxide production. Type of data set: cell-based, human. To be noted: A2780, half-cytotoxic concentration, 24 h, with or without pyocyanin. As for the experimental part:
ROS induction in A2780 cells after incubation with 4 μM complex (1) was studied using a ROS-ID® Total ROS/Superoxide detection kit (Enzo Life Sciences, Farmingdale, NY, USA) according to the manufacturer’s protocol. The cells were seeded in a 96-well cell culture plates at 10^4 cells per well and cultivated for 24 h, followed by 24 h experimental treatment. Then, the cells were stained with ROS/superoxide probe mixture and incubated at 37 °C in the dark for 60 min. Finally, the fluorescence was measured using a microplate reader Infinite M200Pro (Tecan, Männedorf, Switzerland). The control samples contained 500 µM pyocyanin, and three independent experiments were conducted, each in triplicate.

The subject of data set [12] is A2780 cells. Kind of data set: Mitochondrial membrane potential analysis (MITO-ID). The class given is cell-based, human. To be noted: A2780, half-cytotoxic concentration, 24 h. As for the experimental part: The A2780 cells were seeded in 24-well cell culture plates at 5 × 10^4 cells/well and cultivated for 24 h. The next day, the complex (1) was added to a final concentration of 4 µM, and the cells were incubated for another 24 h. […] The cells were then isolated by centrifugation and resuspended in a staining solution prepared according to the manufacturer’s protocol from a MITO-ID® Membrane Potential Detection kit (Enzo Life Sciences, USA). Finally, the cells were analyzed using a BD FACSVerse flow cytometer (Becton Dickinson, USA). The control was carried out by treatment with 2 µM carbonyl cyanide 3-chlorophenylhydrazone (CCCP). Three independent experiments were conducted, each in duplicate.

The IC50 is the concentration that inhibits the measured activity by half.

6-furfuryladenine [Kinetin]: the IC50 in [1] is over 25 µM; in [2], over 25 µM; in [3], over 25 µM; in data set [4] it was over 25 µM; in data set [5], over 25 µM; in the data set on THP1-Blue™ NF-κB cells it was over 10 µM. Also, the IC50 in the data set on MCF-7 cells is 52 µM. Besides, in the data set with PPARγ, the “Effect on the amount of PPARγ” value was “did not show this effect”.
As to `N.N.[Cl][Pt][Cl]` [Cisplatin], the IC50 in [2] is over 50 µM; in [3] it was over 50 µM; in data set [6], 28.2 ± 4.2 µM; in data set [7], over 50 µM; in data set [4], over 50 µM. For the same molecule, the “Effect on the cell cycle” value with A2780 cells [8] is reported as “arrested a significant number of cells in S-phase”. Further, in the data set on A2780 cells [8] (vs untreated control), the “Number of cells in the G0/G1 phase” value is on record as “significant decrease in the number of cells in the G0/G1 phase”. Moreover, the “Cells in early and late-stage apoptosis” value in the data set on A2780 cells [9] is “around 40%”. In the data set with caspases 3/7, the “Cells with active executioner caspases 3/7” value is “around 50%”. Besides, the “Induction of autophagy” value in the data set with A2780 cells [10] is “significantly induced the autophagy”. In addition, in the data set with A2780 cells [11], the “Intracellular oxidative stress, ROS and superoxide levels” value was “did not cause a significant increase in the intracellular oxidative stress”. Further, the “Damage to mitochondrial membranes” value in the data set with A2780 cells [12] was “Significant changes in mitochondrial membrane permeability”.
